Results taken from article PMC8185074, “Anchor extension: a structure-guided approach to design cyclic peptides targeting enzyme active sites” (Nature Communications, 2021).
Peptide text beside a SMILES is read from it.

Assays:
Assay type in all cases: biochemical
HDAC6 = biological target: T1, HDAC6 (Homo sapiens, UniProt Q9UBN7); assay: HDAC6 inhibition, full IC50 measurement (Reaction Biology; fluorogenic p53 peptide RHKK(Ac)AMC)
T1 construct: purchased Reaction Biology Corporation (assay run by the CRO)
T1 sequence (Q9UBN7 1-1215): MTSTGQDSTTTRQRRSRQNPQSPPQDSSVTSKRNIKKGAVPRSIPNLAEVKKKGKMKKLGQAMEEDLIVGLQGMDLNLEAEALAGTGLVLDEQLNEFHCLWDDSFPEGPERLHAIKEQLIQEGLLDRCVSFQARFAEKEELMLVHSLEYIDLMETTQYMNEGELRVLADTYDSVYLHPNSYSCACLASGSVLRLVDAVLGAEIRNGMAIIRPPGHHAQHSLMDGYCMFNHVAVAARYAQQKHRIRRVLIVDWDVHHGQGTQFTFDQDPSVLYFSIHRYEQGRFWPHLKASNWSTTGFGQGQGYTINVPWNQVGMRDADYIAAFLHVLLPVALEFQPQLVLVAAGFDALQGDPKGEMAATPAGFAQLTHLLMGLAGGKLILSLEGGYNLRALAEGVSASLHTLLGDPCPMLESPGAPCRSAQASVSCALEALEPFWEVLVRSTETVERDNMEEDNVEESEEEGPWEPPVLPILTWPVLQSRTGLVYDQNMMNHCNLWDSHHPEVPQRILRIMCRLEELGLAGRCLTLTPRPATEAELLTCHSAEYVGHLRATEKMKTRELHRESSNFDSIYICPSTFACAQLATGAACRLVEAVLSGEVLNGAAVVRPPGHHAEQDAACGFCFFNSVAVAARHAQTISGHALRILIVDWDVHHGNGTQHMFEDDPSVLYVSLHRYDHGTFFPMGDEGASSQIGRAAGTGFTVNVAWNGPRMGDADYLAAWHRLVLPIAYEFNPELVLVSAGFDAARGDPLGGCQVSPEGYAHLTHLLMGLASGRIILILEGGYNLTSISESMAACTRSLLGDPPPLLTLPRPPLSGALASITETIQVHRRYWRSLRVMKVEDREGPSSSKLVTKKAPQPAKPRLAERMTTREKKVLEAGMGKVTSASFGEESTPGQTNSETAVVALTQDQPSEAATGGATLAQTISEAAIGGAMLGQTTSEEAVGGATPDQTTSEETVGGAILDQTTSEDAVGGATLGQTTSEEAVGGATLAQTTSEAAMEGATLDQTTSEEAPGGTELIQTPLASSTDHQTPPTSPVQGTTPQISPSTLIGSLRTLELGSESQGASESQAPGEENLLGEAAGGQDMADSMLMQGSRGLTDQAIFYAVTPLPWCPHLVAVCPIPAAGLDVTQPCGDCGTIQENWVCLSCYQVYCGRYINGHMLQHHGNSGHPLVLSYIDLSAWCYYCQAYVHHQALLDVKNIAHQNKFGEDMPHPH
Procedure, shortened: (§1)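 Test peptides were dispensed acoustically with enzyme in 50 mM Tris-HCl pH 8.0, 137 mM NaCl, 2.7 mM KCl, 1 mM MgCl2, 1 mg/ml BSA and 1% DMSO. After adding 50 μM RHKK(Ac)AMC, reactions ran 1 h at 30 °C, then developer was added.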

HDAC3 = biological target: T2, HDAC3 (Homo sapiens, UniProt O15379); assay: HDAC3 inhibition, full IC50 measurement (Reaction Biology; fluorogenic p53 peptide RHKK(Ac)AMC)
T2 construct: purchased Reaction Biology Corporation (assay run by the CRO)
Procedure, shortened: as §1

HDAC8 = biological target: T3, HDAC8 (Homo sapiens, UniProt Q9BY41); assay: HDAC8 inhibition, full IC50 measurement (Reaction Biology; fluorogenic p53 peptide RHKK(Ac)AMC); conditions: t1/t2 replicates
T3 construct: purchased Reaction Biology Corporation (assay run by the CRO)
T3 sequence (Q9BY41 1-377): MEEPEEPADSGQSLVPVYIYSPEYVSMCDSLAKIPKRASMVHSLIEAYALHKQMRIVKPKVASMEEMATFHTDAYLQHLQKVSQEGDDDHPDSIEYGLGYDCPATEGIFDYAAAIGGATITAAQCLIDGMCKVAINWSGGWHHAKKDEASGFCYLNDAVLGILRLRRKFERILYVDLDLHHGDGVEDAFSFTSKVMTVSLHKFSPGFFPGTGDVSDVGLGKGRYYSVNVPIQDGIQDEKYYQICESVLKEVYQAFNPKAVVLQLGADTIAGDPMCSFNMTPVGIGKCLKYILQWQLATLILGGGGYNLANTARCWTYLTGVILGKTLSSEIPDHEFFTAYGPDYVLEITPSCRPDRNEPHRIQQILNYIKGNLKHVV
Procedure, shortened: as §1

T2 sequence (O15379 whole entry): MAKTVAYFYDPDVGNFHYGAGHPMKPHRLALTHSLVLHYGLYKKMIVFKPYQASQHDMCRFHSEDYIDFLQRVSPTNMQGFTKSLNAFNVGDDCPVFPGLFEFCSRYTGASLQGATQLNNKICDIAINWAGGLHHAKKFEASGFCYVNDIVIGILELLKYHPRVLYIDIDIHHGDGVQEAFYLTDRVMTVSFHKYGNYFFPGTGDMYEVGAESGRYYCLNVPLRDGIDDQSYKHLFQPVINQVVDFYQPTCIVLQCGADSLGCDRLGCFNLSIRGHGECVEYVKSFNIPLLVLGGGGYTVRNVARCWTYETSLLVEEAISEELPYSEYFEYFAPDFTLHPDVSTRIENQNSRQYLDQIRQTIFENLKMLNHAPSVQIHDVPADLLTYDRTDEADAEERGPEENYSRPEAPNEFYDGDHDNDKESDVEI
T2 sequence (Q9Y618 395-489 partner limits assumed): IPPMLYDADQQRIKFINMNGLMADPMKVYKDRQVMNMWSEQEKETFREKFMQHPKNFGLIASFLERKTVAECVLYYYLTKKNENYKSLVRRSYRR

## C[C@H](O)[C@H]1NC(=O)[C@H](Cc2c[nH]c3ccccc23)NC(=O)[C@H](CCCCCS)NC(=O)[C@H](CCCCN)NC(=O)[C@@H](CC(=O)O)NC(=O)[C@@H](CCCCN)NC(=O)[C@@H](CO)NC(=O)[C@H](CC(N)=O)NC(=O)[C@H](CC(=O)O)NC1=O [des2.1.0, SHA-Trp-dThr-Asp-Asn-dSer-dLys-dAsp-Lys] (HELM PEPTIDE1{D.N.[dS].[dK].[dD].K.[O=C([C@H](CCCCCS)N[*:1])[*:2]].W.[dT]}$PEPTIDE1,PEPTIDE1,1:R1-9:R2$$$V2.0)
HDAC6; Conc. 1.00E-05 M, t1
  HDAC6 activity raw data (signal): 11243
HDAC6; Conc. 1.00E-05 M, t2
  HDAC6 activity raw data (signal): 1739
HDAC6; Conc. 1.11E-06 M, t1
  HDAC6 activity raw data (signal): 28172
HDAC6; Conc. 1.11E-06 M, t2
  HDAC6 activity raw data (signal): 21097
HDAC6; Conc. 1.23E-07 M, t1
  HDAC6 activity raw data (signal): 158713
HDAC6; Conc. 1.23E-07 M, t2
  HDAC6 activity raw data (signal): 131097
HDAC6; Conc. 1.37E-08 M, t1
  HDAC6 activity raw data (signal): 435775
HDAC6; Conc. 1.37E-08 M, t2
  HDAC6 activity raw data (signal): 375237
HDAC6; Conc. 1.52E-09 M, t1
  HDAC6 activity raw data (signal): 580209
HDAC6; Conc. 1.52E-09 M, t2
  HDAC6 activity raw data (signal): 526073
HDAC6; Conc. 3.33E-06 M, t1
  HDAC6 activity raw data (signal): 12962
HDAC6; Conc. 3.33E-06 M, t2
  HDAC6 activity raw data (signal): 9723
HDAC6; Conc. 3.70E-07 M, t1
  HDAC6 activity raw data (signal): 70613
HDAC6; Conc. 3.70E-07 M, t2
  HDAC6 activity raw data (signal): 63583
HDAC6; Conc. 4.12E-08 M, t1
  HDAC6 activity raw data (signal): 283586
HDAC6; Conc. 4.12E-08 M, t2
  HDAC6 activity raw data (signal): 230477
HDAC6; Conc. 4.57E-09 M, t1
  HDAC6 activity raw data (signal): 537641
HDAC6; Conc. 4.57E-09 M, t2
  HDAC6 activity raw data (signal): 486475
HDAC6; Conc. 5.08E-10 M, t1
  HDAC6 activity raw data (signal): 609077
HDAC6; Conc. 5.08E-10 M, t2
  HDAC6 activity raw data (signal): 536924
HDAC3; Conc. 1.00E-05 M, t1
  HDAC3 activity raw data (signal): 14719
HDAC3; Conc. 1.00E-05 M, t2
  HDAC3 activity raw data (signal): 13801
HDAC3; Conc. 1.11E-06 M, t1
  HDAC3 activity raw data (signal): 92063
HDAC3; Conc. 1.11E-06 M, t2
  HDAC3 activity raw data (signal): 96957
HDAC3; Conc. 1.23E-07 M, t1
  HDAC3 activity raw data (signal): 462933
HDAC3; Conc. 1.23E-07 M, t2
  HDAC3 activity raw data (signal): 478168
HDAC3; Conc. 1.37E-08 M, t1
  HDAC3 activity raw data (signal): 1054714
HDAC3; Conc. 1.37E-08 M, t2
  HDAC3 activity raw data (signal): 1114131
HDAC3; Conc. 1.52E-09 M, t1
  HDAC3 activity raw data (signal): 1368847
HDAC3; Conc. 1.52E-09 M, t2
  HDAC3 activity raw data (signal): 1246343
HDAC3; Conc. 3.33E-06 M, t1
  HDAC3 activity raw data (signal): 35860
HDAC3; Conc. 3.33E-06 M, t2
  HDAC3 activity raw data (signal): 35981
HDAC3; Conc. 3.70E-07 M, t1
  HDAC3 activity raw data (signal): 254333
HDAC3; Conc. 3.70E-07 M, t2
  HDAC3 activity raw data (signal): 260454
HDAC3; Conc. 4.12E-08 M, t1
  HDAC3 activity raw data (signal): 754531
HDAC3; Conc. 4.12E-08 M, t2
  HDAC3 activity raw data (signal): 801621
HDAC3; Conc. 4.57E-09 M, t1
  HDAC3 activity raw data (signal): 1235523
HDAC3; Conc. 4.57E-09 M, t2
  HDAC3 activity raw data (signal): 1319114
HDAC3; Conc. 5.08E-10 M, t1
  HDAC3 activity raw data (signal): 1390666
HDAC3; Conc. 5.08E-10 M, t2
  HDAC3 activity raw data (signal): 1409656
HDAC8; peptide conc. 1.00E-05 M, listed as des2.1.0_t1
  HDAC8 activity raw data (signal): 3317278
HDAC8; peptide conc. 1.00E-05 M, listed as des2.1.0_t2
  HDAC8 activity raw data (signal): 3225773
HDAC8; peptide conc. 1.11E-06 M, listed as des2.1.0_t1
  HDAC8 activity raw data (signal): 14350924
HDAC8; peptide conc. 1.11E-06 M, listed as des2.1.0_t2
  HDAC8 activity raw data (signal): 13274280
HDAC8; peptide conc. 1.23E-07 M, listed as des2.1.0_t1
  HDAC8 activity raw data (signal): 29733699
HDAC8; peptide conc. 1.23E-07 M, listed as des2.1.0_t2
  HDAC8 activity raw data (signal): 29791882
HDAC8; peptide conc. 1.37E-08 M, listed as des2.1.0_t1
  HDAC8 activity raw data (signal): 39649362
HDAC8; peptide conc. 1.37E-08 M, listed as des2.1.0_t2
  HDAC8 activity raw data (signal): 39639123
HDAC8; peptide conc. 1.52E-09 M, listed as des2.1.0_t1
  HDAC8 activity raw data (signal): 48372865
HDAC8; peptide conc. 1.52E-09 M, listed as des2.1.0_t2
  HDAC8 activity raw data (signal): 43623554
HDAC8; peptide conc. 3.33E-06 M, listed as des2.1.0_t1
  HDAC8 activity raw data (signal): 8085277
HDAC8; peptide conc. 3.33E-06 M, listed as des2.1.0_t2
  HDAC8 activity raw data (signal): 7910023
HDAC8; peptide conc. 3.70E-07 M, listed as des2.1.0_t1
  HDAC8 activity raw data (signal): 24973470
HDAC8; peptide conc. 3.70E-07 M, listed as des2.1.0_t2
  HDAC8 activity raw data (signal): 23110500
HDAC8; peptide conc. 4.12E-08 M, listed as des2.1.0_t1
  HDAC8 activity raw data (signal): 39179752
HDAC8; peptide conc. 4.12E-08 M, listed as des2.1.0_t2
  HDAC8 activity raw data (signal): 38239026
HDAC8; peptide conc. 4.57E-09 M, listed as des2.1.0_t1
  HDAC8 activity raw data (signal): 45086009
HDAC8; peptide conc. 4.57E-09 M, listed as des2.1.0_t2
  HDAC8 activity raw data (signal): 40240975
HDAC8; peptide conc. 5.08E-10 M, listed as des2.1.0_t1
  HDAC8 activity raw data (signal): 46468325
HDAC8; peptide conc. 5.08E-10 M, listed as des2.1.0_t2
  HDAC8 activity raw data (signal): 43451568
